From PMC10295897, “A Novel MDM2-Binding Chalcone Induces Apoptosis of Oral Squamous Cell Carcinoma” (Biomedicines, 2023) come the findings set out here.

Molecules are shown by their SMILES. Where two headings read alike, the source gives them in different places.

For series [1], the system named is SCC9 cells. The experiment in a line: MTT cell viability assay, SCC9 oral cancer cells. In kind it is cell-based, human. The settings on record: for IC50: Homo sapiens, SCC-9, 48 h, MTT. On the procedure:
(§1) Human SCC-4, SCC-9, and SCC-25 cells derived from a human oral tongue SCC (squamous cell carcinoma) were obtained from the ATCC (CRL-1624, CRL-1629, and CRL-1628, respectively) and maintained in 1:1 DMEM/F12 (Dulbecco’s modified Eagle medium and Ham’s F12 medium; Gibco (Thermo Fisher, Waltham, MA, USA)) supplemented with 10% (v/v) FBS (fetal bovine serum; Invitrogen, Thermo Fisher, Waltham, MA, USA) and 400 ng/mL hydrocortisone (Sigma-Aldrich Co., St. Louis, MO, USA). Primary normal human gingival fibroblasts were obtained from the ATCC (PCS-201-018; HGF) and maintained in DMEM supplemented with 10% (v/v) FBS and were used in a maximum of six passages. The cells were grown in a humidified environment containing 5% CO2 at 37 °C. For all biological experiments, the compounds and control nutlin 3a were solubilized in 100% DMSO (all Sigma-Aldrich) to a final concentration of 10 mM. Carboplatin stock was prepared in water (Fauldcarbo®; LibbsFarmacêutica, São Paulo, SP, Brazil) and was used as a standard anticancer compound.
(§2) The viability of SCC cell lines, HT-29, HCT-116, HEP2G and primary human fibroblast cells was evaluated using the MTT assay as in [26]. Briefly, the cells were grown in duplicates in 96-well plates (5 × 10^3 cells/well) until confluence. Then, the medium was removed, fresh medium was added, and the cells were returned to the incubator in the presence of different compounds. DMSO at the same concentrations was used as a 100% cell viability control. After 48 h, the cells were incubated with 5 mg/mL MTT reagent (3-(4,5-dimethyl-2-thiazolyl)-2,5-diphenyl-2-H-tetrazolium bromide) (Sigma-Aldrich Co., St. Louis, MO, USA) for 3.5 h. After that, formazan crystals were dissolved in MTT solvent solution (DMSO/methanol 1:1 v/v), and the absorbance at 560 nm was evaluated using an EPOCH microplate spectrophotometer (BioTek Instruments, Winooski, VT, USA) with the background absorbance at 670 nm subtracted. Each of the six compounds was tested at six or seven different concentrations, ranging from 0.3 µM to 200 µM in cancer cell lines (SCC-4, SCC-9 and SCC-25) and 0.3 µM to 200 µM in primary normal human gingival fibroblasts. Controls (carboplatin, nutlin 3a) were tested at six or seven different concentrations ranging from 0.05 µM to 1000 µM in cancer cells and normal cells, depending on the compound.
(§3) The data are presented as means ± SD. IC values for the MTT assays were obtained by nonlinear regression using the […] 5.0 program (Intuitive Software for Science, San Diego, CA, USA) from at least three independent experiments. A dose–response (inhibitor) vs. response curve using the least squares method was used to determine the IC50, SD, and R^2 of the data. The selectivity index was calculated as SI = IC50 of the compound in normal oral fibroblast cells/IC50 of the same compound for each cancer cell line (SCC-4, SCC-9, SCC-25, HCT-116, HT29 and HEP2G), and the mean was calculated when indicated.
Initially, the six chalcones (1a–f) were submitted to the MTT assay to evaluate their cytotoxicity. The assay was performed using the oral cancer cell line SCC9, and the results were analyzed by a non-linear regression curve to determine the value of the half maximal inhibitory concentration (IC50). As controls, known chemotherapeutic agents were used, namely carboplatin, routinely used in the treatment of oral cancer, and doxorubicin, widely used for other types of cancers.

In series [2] the test system is SCC4 cells. The experiment in a line: MTT cell viability assay, SCC4 cells. In kind it is cell-based, human. The protocol:
as §1, §2, §3
(Formazan colour is commonly taken as a measure of viable cells.)

The subject of series [3] is HEP2G (hepatocarcinoma). The series is described as follows: MTT cell viability assay, HEP2G. The settings on record: 48 h. The format is cell-based. On the procedure:
as §2, with “Each of the six compounds was tested at six or seven different concentrations, ranging from 0.3 µM to 200 µM in cancer cell lines (SCC-4, SCC-9 and SCC-25) and 0.3 µM to 200 µM in primary normal human gingival fibroblasts. Controls (carboplatin, nutlin 3a) were tested at six or seven different concentrations ranging from 0.05 µM to 1000 µM in cancer cells and normal cells, depending on the compound.” left out
The data are presented as means ± SD. […] The selectivity index was calculated as SI = IC50 of the compound in normal oral fibroblast cells/IC50 of the same compound for each cancer cell line (SCC-4, SCC-9, SCC-25, HCT-116, HT29 and HEP2G), and the mean was calculated when indicated.

Series [4] relates to Oral Tumor Cells (SCC9, SCC25, SCC4). The series is described as follows: MTT assay, average over oral tumor cells. The format is cell-based, human. The protocol:
as §2, §3

Series [5] has as its system C57BL/6 female mice. The series is described as follows: In vivo acute toxicity study. The settings on record: for Gross Necropsy: day 14. On the procedure: The acute toxicity study for compound 1f was performed as in the work of Macedo et al., 2019 [24]. The assay was approved by the University Animal Ethics Board under registration number 2699110419, in accordance with Brazilian guidelines and regulations. Dosing and analysis were performed according to OECD guidelines 423 and revised by Parasuraman. The test was performed in 12-week-old C57BL/6 female mice via intraperitoneal injection. Each animal group had n = 3 and received only one intraperitoneal injection (Day 0) of compound 1f dissolved in […] PBS and 3% DMSO. The control group animals received only 3% DMSO in PBS. The first dose of the compound was 25 mg/kg; subsequent dose levels (50 mg/kg and 100 mg/kg) were determined based on the result obtained from the previous dosing. The animals were examined every day, twice a day, for mortality and morbidity for 14 days. At day 14, all animals were anesthetized (ketamine 100 mg/kg and xylazine 10 mg/kg) followed by cervical dislocation. The gross necropsy and histology of the main organs were performed. Body weight and average food consumption were measured every 7 days as an indication of morbidity, and the following signs were assessed: tremors; convulsion; salivation; diarrhea; lethargy; pain signs; increased rear arching; and defect in mobility. The necropsy included an examination of the external characteristics of the carcass; external body orifices; the abdominal, thoracic, and cranial cavities; and organs/tissues—liver, thymus, right kidney, right testicle, heart, and lung.

The subject of series [6] is SCC9 cells. The series is described as follows: Annexin V-FITC/PI apoptosis flow cytometry. The format is cell-based, human. The settings on record: SCC9, 2 × IC50, 48 h. On the procedure: (§4) Cells of the SCC9 cell line were plated in 6-well plates (5 × 10^5 cells/well), trypsinized 48 h after treatment, labeled using the Annexin V-FITC Apoptosis Detection Kit according to the manufacturer’s protocol (#BMS500FI/300, Invitrogen), and analyzed by FACScalibur flow cytometry as in [35]. Furthermore, 5 × 10^4 SCC-9 cells were plated in a 24-well plate containing 1 mL of DMEM/F12 with 10% FBS per well. CellEvent™ Caspase-3/7 Reagent (#R37111, Invitrogen) was diluted in a culture medium according to the manufacturer’s instructions. […] The cells were analyzed by flow cytometry after 48 h of treatment.
For orientation: A flow cytometer gives signals particle by particle.

Series [7] concerns SCC-9 cells. The experiment in a line: Caspase-3/7 flow cytometry. In kind it is cell-based, human. The settings on record: SCC9, 2 × IC50, 48 h. The protocol:
as §4

As usually defined, the IC50 is the concentration that inhibits the measured activity by half. As to `Cc1cccc(C)c1-n1cc(/C=C/C(=O)c2ccccc2N)nn1` [1f, (E)-1-(2-Aminophenyl)-3-(1-(2,6-dimethylphenyl)-1H-1,2,3-triazol-4-yl)prop-2-en-1-one], the concentration for half-maximal inhibition (IC50) in series [1] (48 h, read-out: SCC9 IC50) came out at 3.87 µM; in series [1] (SCC9, 48 h, read-out: IC50), 3.87 µM; in series [2] (Homo sapiens, SCC-4, 48 h, MTT), 4.73 µM; in series [3], 39.4 µM; in series [4] (Homo sapiens, mean of SCC9, SCC25, SCC4), 4.54 µM. Besides, the “SCC9 S.I.” value in series [1] (selective index = IC50 HGF / IC50 SCC9) is on record as 7.63. In series [2] (selective index = IC50 HGF / IC50 SCC4), the “SCC4 S.I.” value worked out at 6.25. For the same compound, the “Average S.I.” value in series [4] (IC50 of normal primary fibroblasts / average IC50 of tumor cells) was 6.51. Further, the “Change in body weight” value in series [5] (25 mg/kg single i.p., 14 days) is on record as “Absent”; in series [5] (50 mg/kg single i.p., 14 days) it was “Absent”; in series [5] (100 mg/kg single i.p., 14 days) it was “Absent”. In addition, the Morbidity entry in series [5] (25 mg/kg single i.p., 14 days) was “Absent”; in series [5] (50 mg/kg single i.p., 14 days), “Absent”; in series [5] (100 mg/kg single i.p., 14 days), “Absent”. The “Gross Necropsy” value in series [5] (25 mg/kg single i.p.), in series [5] (50 mg/kg single i.p.) and in series [5] (100 mg/kg single i.p.) was “No alteration” each time. The “animal weight compared to control group” value in series [5] (25, 50, 100 mg/kg i.p., 14 days) is listed as “no significant change in animal weight”. Moreover, in series [5] (all groups (25, 50, 100 mg/kg i.p.)), the “food consumption, second week” value is on record as “no noticeable difference in food consumption”. Also, the “food intake, first week” value in series [5] (all treated groups (25, 50, 100 mg/kg i.p.), more significant at 100 mg/kg) is “reduction in food intake”. The same compound showed a phosphatidylserine exposure in series [6] of 43.0%. Also, in series [7], the “caspase 3/7 activity” value turned out to be 47.5%.
